Data taken from patent US20250228916A1, “A METHOD OF TREATING OR PREVENTING SEPSIS” (priority 2016, published 2025).

Key:
[1] = test system: endothelial cells; assay: VE-cadherin immunostaining of tight junction formation after E. coli infection; format: cell-based, human; details: pre-treating the endothelial cells with cilengitide; FIG. 17E
[2] = test system: αVβ3 on human endothelial cells; assay: Binding assay: L. lactis expressing ClfA binding to sheared human endothelial cells; format: cell-based; details: pretreatment of the human endothelial cells with cilengitide; FIG. 6B
Experimental: (§1) Sheared HAoECs were seeded into wells of a 96 well tissue culture plate at a density of 2.5×10^4 cells per well in a volume of 100 μl. Experiments were carried out either in the presence or absence of TNFα at 10 ng/ml. The HAoECs were incubated at 37° C. 5% CO2 for 4 hours to facilitate attachment and cell-cell contact on the plate. Following the 4 hr incubation the media was removed and 100 μl of human platelet poor plasma (PPP), 4 mg/ml fibrinogen or 1 mg/ml IgG was added to each well and incubated for 1 hr at 37° C. 5% CO2. The wells were washed with PBS and the wells were blocked with 100 μl of 1% […] for 1 hr at 37° C. Finally the wells were washed with 100 μl of TBS and 100 μl of SYBR green II stained bacteria was added per well at a MOI of 400. The cells were incubated for a further 1 hr at 37° C. 5% CO2 and then read on a fluorescent plate reader (1420 Victor V3, Perkin Elmer, Dublin, Ireland) at 485/535 nm. The bacteria were then removed gently by pipette and the plate washed with 100 μl TBS/well. The plate was then read again at 485/535 nm. Adhered bacteria were calculated as a percent remaining from the initial reading multiplied by the number of bacteria added.

[3] = test system: human endothelial cells; assay: MTT cytotoxicity assay; format: cell-based; details: 0.05 μM cilengitide, FIG. 12
Experimental: Cell metabolic activity was measured using a MTT ((3-(4,5-dimethylthiazol-2-yl)-2,5-diphenyltetrazolium bromide) assay kit. Sheared HAoECs were seeded into a clear 96 well microtitre plate at a density of 2.5×10^4 cells/well in 100 μl in media containing 10 ng/ml TNFα. The cells were incubated for 4 hrs at 37° C. Media was removed from the wells after 4 hrs and replaced with 100 μl of fresh cell media, cell media containing a vehicle or cell media containing 0.05 μM cilengitide. The plate was incubated for a further one hour before the media was changed for 100 μl of fresh cell media with 10 μl of 12 mM MTT stock and the plate 10 incubated at 37° C. for 4 hrs. All but 25 μl of liquid was removed from each well and 10 μl of DMSO was added per well. The plate was incubated for 10 minutes at 37° C. before being read on a plate reader for absorbance at 570 nm.

[4] = test system: human endothelial cells; assay: Apoptosis assay (Annexin V), S. aureus infected human endothelial cells; format: cell-based; details: cilengitide at 0.05 µM for 1 hr; FIG. 9B
Experimental: (§2) Sheared HAoECs in a 6 well plate were exposed to 1 ng of TNFα per 25,000 endothelial cells and were incubated for 4 hrs at 37° C. The TNFα containing media was removed and 1 ml of 4 mg/ml Fg in media at 37° C. for 1 hr. Media was removed and replaced with 1 ml of antibiotic free media containing S. aureus Newman WT or Newman ΔClfA to a MOI of 400 in a final volume per well of 2 ml. The cells were incubated for 24 hrs at 37° C. Following incubation the media was removed and the wells washed 3 times with warm PBS. Cells were detached by trypsinization and pelleted. The cell pellet was washed in ice cold (4° C.) PBS before being stained with a TACS™ Annexin V Apoptosis Kit. The cells were analysed on a flow cytometer (BD FACSCanto™ II Flow Cytometer). The experiment was repeated to test αVβ3 blocking by cilengitide at 0.05 µM for 1 hr between the TNFα exposure and the addition of 4 mg/ml fibrinogen for 1 hr. This experiment was repeated using E. coli and E. coli AompA instead of S. aureus Newman WT or Newman ΔClfA.

[5] = test system: human endothelial cells; assay: Transwell permeability assay, S. aureus infected human endothelial cells; format: cell-based; details: cilengitide at 0.05 μM for 1 hr; FIG. 10
Experimental: (§3) Endothelial barrier permeability was assessed using a transwell apparatus with the slight modifications. Sheared HAoECs were trypsinized and seeded into hanging inserts, were placed in a 6 well plate. To the lower (abluminal) chamber of the plate 4 ml of cell media was added and 2 ml of media containing 200,000 cells/ml was added to the top (luminal) chamber. The wells plates were incubated at 37° C. in a 5% CO2 and humidified atmosphere overnight to form a confluent monolayer. Media in the abluminal chamber was changed to antibiotic free media while simultaneously the media in the luminal chamber was removed and washed with antibiotic free media. Cells were infected with S. aureus Newman WT and S. aureus ΔClfA in 2 ml of antibiotic free media to infect the cells at a MOI of 400 for 3 hrs at 37° C. FITC dextran (40 kDa) was added to the top chamber for a final concentration of 250 μg/ml in 2 ml. Media samples from the abluminal chamber were taken 24 hrs after infection measured on a plate reader at fluorescence Ex/Em 485/535 nm. The experiment was repeated to test αVβ3 blocking by cilengitide at 0.05 μM for 1 hr between the TNFα exposure and the addition of 4 mg/ml fibrinogen in place of plasma for 1 hr. This experiment was repeated using E. coli and E. coli AompA instead of S. aureus Newman WT or Newman ΔClfA.

[6] = test system: endothelial cells; assay: Transwell permeability assay, E. coli infected endothelial cells; format: cell-based, human; details: preincubating the endothelial cells with cilengitide; FIG. 16
Experimental: as §3

[7] = test system: human endothelial cells; assay: Proliferation assay, S. aureus infected human endothelial cells; format: cell-based; details: 0.05 μM cilengitide, 24 hrs; FIG. 8H
Experimental: Sheared HAoECs were seeded into a six well plate at 150,000 cells per well in 1.6 ml media containing 10 ng/ml of TNFα. The cells were incubated for 4 hrs at 37° C. in a 5% CO2. […] The media was removed and the well washed with antibiotic free media. To each well 1.6 ml of antibiotic free media was added containing S. aureus Newman or S. aureus ΔClfA for a MOI of 400. The cells were incubated at 37° C. in for 24 hrs. Following incubation the media was removed from the cells and they were washed 4 times with warm PBS. The cells were detached from the 6 well plate by trypsinization counted on a haemocytometer.

[8] = test system: endothelial cells; assay: Apoptosis assay (Annexin V flow cytometry), E. coli infected endothelial cells
Experimental: as §2

[9] = test system: S. aureus adhesion to murine endothelial cells; assay: In vivo venous mesenteric perfusion model of bacterial adhesion; details: cilengitide administered intravenously; FIG. 7C, 7E
[10] = target: purified receptor a Vb3 (Homo sapiens, UniProt P05106+P06756); assay: L. lactis ClfA binding to purified receptor αVβ3; details: pretreating the purified receptor with cilengitide; FIG. 6C
Chain of purified receptor a Vb3 (P06756 31-889 limits assumed): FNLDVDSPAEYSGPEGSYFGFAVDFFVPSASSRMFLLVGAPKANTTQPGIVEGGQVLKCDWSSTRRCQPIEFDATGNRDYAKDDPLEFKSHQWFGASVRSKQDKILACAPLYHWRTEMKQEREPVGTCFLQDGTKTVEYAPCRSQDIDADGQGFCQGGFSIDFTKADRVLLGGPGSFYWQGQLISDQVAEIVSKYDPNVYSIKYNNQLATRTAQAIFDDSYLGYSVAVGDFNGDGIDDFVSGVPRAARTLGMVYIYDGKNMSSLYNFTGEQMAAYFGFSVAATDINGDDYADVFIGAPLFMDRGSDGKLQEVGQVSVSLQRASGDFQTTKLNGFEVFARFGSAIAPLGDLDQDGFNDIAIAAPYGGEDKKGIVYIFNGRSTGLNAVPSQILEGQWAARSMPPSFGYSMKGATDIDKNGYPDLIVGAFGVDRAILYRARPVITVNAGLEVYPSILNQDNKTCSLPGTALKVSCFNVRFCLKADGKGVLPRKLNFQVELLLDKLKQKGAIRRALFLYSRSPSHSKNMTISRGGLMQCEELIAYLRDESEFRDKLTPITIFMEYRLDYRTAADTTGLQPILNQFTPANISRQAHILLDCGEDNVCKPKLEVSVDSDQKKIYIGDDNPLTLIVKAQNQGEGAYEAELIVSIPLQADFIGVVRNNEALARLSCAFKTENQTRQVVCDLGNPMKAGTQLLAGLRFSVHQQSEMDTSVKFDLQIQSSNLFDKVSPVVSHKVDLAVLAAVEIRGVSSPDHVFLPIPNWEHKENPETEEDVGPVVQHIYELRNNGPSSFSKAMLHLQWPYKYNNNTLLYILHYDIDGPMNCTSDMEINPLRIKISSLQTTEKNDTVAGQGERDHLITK
Chain of purified receptor a Vb3 (P06756 891-1048 partner limits assumed): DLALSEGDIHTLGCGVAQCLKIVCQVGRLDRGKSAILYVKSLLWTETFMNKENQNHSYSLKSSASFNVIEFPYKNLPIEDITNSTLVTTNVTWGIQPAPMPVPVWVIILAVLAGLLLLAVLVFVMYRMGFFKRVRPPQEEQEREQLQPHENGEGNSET
Chain of purified receptor a Vb3 (P05106 27-788): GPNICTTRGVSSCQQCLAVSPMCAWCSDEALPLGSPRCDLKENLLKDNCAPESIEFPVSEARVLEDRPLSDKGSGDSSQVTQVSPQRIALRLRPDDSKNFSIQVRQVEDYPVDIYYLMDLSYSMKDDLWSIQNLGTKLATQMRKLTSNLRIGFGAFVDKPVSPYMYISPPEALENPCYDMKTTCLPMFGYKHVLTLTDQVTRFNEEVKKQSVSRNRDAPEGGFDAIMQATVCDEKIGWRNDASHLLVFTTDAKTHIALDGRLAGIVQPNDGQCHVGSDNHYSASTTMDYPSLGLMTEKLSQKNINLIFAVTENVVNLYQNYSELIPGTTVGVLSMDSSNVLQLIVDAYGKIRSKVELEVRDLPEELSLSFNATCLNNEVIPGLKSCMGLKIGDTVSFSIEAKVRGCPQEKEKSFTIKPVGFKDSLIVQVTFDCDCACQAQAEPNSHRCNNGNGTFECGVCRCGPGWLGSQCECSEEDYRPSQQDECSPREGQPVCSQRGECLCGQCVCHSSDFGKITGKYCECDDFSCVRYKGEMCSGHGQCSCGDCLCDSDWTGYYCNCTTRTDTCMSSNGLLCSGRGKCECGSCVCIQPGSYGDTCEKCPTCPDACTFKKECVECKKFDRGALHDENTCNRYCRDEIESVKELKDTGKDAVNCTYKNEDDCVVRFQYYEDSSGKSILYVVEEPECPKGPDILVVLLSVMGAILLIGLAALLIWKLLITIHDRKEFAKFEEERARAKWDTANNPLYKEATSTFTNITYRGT

[11] = test system: vascular endothelial αVβ3 integrin receptor; assay: Adhesion of gram positive and gram negative bacteria to vascular endothelial cells; format: cell-based, human; details: blocking the αVβ3 receptor
Experimental: as §1

[12] = test system: αVβ3 integrin on sheared endothelial cells; assay: E. coli binding to sheared endothelial cells under perfusion; format: cell-based, human; details: cilengitide 0.05 μM; E. coli perfused at 10 dyns for 5 minutes; FIG. 14B
[13] = test system: αVβ3 integrin on endothelial cells; assay: E. coli binding to endothelial cells, static assay; format: cell-based, human; details: cilengitide 0.05 μM; FIG. 14A
Experimental: as §1

[14] = target: vascular endothelial αVβ3 integrin on sheared human aortic endothelial cells (human)

Molecule	VE-cadherin tight junction formation following E. coli infection [1]	binding of L. lactis expressing ClfA to human endothelial cells [2]	toxicity in human endothelial cells [3]	S. aureus induced apoptosis of human endothelial cells [4]	permeability of the human endothelial barrier following S. aureus infection [5]	E. coli induced permeability of endothelial cells [6]	human endothelial cell proliferation after S. aureus infection [7]	viability of endothelial cells ([8]; cilengitide alone, no infection)	E. coli induced apoptosis of endothelial cells ([8]; preincubation of endothelial cells with cilengitide, Annexin V, FIG. 17F)	S. aureus binding to murine endothelial cells [9]	L. lactis ClfA binding to purified receptor αVβ3 [10]	adhesion of both gram positive and gram negative bacteria to vascular endothelial cells [11]	E. coli binding to sheared endothelial cells, perfused [12]	E. coli binding to endothelial cells, static assay [13]	endothelial cell permeability (% increase in permeability) [14]
CC(C)[C@H]1C(=O)N[C@@H](CCCN=C(N)N)C(=O)NCC(=O)N[C@@H](CC(=O)O)C(=O)N[C@H](Cc2ccccc2)C(=O)N1C [cilengitide, cyclo(-RGDf(NMe)V-)]	recovery of tight junction formation	significantly reduced	does not cause toxicity	significantly reduced	significantly reduced	significantly reduces permeability	significantly recovered	failed to affect	significant reduction	failed to significantly bind	significantly inhibited	dose-dependent reduction in adhesion	significantly inhibited	significantly inhibited	–
Escherichia coli outer membrane protein A	–	–	–	–	–	–	–	–	–	–	–	–	–	–	30
